The source of these data is patent US10287251B2, “Pyrazole derivative or pharmaceutically acceptable salt thereof” (KISSEI PHARMACEUTICAL CO., LTD., priority 2015, dated 2019).

One assay deals with T1, TRPM8 (Rattus norvegicus, UniProt Q8R455).
T1 construct: from tissue; host or cells: whole animal, female SD rats (in vivo)
In words: Confirmation test of inhibitory effects on icilin-induced wet-dog shakes. The class given is in vivo. The conditions noted are these: female SD rats, icilin 1 mg/kg i.p. 1 hour after dosing, shakes counted for 5 minutes. A digest of the protocol: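 Female SD rats received compounds orally at 0.3 to 10 mg/kg in 5% dimethylacetamide/0.5% methylcellulose. One hour later, icilin (1 mg/kg, i.p., in PEG 400) was given, and wet-dog shakes were counted for 5 min starting 5 min after icilin. Percent inhibition was calculated against vehicle-treated rats.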

The test system of assay [1] is overactive bladder induced by acetic acid. The experiment in a line: Confirmation test of elongation action of micturition interval of overactive bladder induced by acetic acid. The assay is classed as in vivo. The conditions noted are these: Rattus norvegicus, iv; urethane-anesthetized female SD rats, 1 mg/kg/mL via femoral vein, intravesical 0.25% acetic acid; interval after/before administration x100. An excerpt: Further, TRPM8 inhibitory activity can be evaluated by the efficacy inhibiting the wet-dog shake action which is induced by the administration of Icilin, TRPM8 agonist. Furthermore, an effect on overactive bladder (OAB) can be evaluated by an elongation of micturition interval against overactive bladder induced by acetic acid in accordance with a similar method described in J. Urol., 2001, 166, 1142. Confirmation Test of Elongation Action of Micturition Interval of Overactive Bladder Induced by Acetic Acid Urethane (sigma) was dissolved into pure water by 25% w/v, and female SD rats were anesthetized with 1.25 g/kg urethane by subcutaneous administration. Cannulae were placed in femoral vein and bladder, and the bladder cannula was connected to both a syringe pump and a pressure transducer. Detrusor overactivity was induced by intravesical infusion of 0.25% acetic acid in saline at a rate of 3.6 mL/h, and intravesical pressure was monitored via pressure transducer concurrently. Test compounds were dissolved into a mixture of dimethylacetamide and saline (20:80), and were administered via, the femoral vein. Elongation of micturition interval (%) by test compound was calculated from the following formula: [an average of the three micturition interval after administration/an average of the three micturition interval before administration]×100.

T1 sequence (Q8R455 whole entry): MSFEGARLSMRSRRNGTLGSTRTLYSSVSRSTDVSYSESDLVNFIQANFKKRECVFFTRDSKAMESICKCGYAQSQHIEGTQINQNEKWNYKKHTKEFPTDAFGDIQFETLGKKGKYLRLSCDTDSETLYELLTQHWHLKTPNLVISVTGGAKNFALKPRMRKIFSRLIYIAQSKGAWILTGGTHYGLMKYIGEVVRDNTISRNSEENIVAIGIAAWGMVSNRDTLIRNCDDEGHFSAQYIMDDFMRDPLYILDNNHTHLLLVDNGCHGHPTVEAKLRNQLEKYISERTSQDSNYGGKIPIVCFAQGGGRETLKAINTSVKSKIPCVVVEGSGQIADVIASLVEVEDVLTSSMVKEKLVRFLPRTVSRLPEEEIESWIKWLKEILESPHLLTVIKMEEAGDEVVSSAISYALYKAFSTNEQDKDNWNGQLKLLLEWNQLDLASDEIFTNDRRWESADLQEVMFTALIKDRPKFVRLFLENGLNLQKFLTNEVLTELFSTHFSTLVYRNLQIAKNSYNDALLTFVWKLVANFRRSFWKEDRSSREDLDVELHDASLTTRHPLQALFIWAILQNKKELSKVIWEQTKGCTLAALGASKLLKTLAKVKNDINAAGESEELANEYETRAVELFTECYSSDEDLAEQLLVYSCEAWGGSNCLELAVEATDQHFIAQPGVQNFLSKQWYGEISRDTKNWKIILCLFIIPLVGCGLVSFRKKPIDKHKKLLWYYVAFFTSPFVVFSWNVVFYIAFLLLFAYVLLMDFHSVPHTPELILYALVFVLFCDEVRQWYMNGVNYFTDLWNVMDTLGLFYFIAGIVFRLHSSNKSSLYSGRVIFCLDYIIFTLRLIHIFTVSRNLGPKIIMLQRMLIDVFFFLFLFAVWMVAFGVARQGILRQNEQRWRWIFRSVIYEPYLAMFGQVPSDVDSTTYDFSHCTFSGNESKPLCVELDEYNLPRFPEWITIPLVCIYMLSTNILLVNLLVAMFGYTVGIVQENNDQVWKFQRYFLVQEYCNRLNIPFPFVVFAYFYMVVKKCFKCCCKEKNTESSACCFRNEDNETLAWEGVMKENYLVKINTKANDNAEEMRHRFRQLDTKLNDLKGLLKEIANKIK

For the compound `O=C(N[C@@H](CCO)Cc1ccccn1)c1cccc(F)c1-c1cc(-c2ccc(F)cc2)[nH]n1` [Example 1-1, 3-Fluoro-2-[5-(4-fluorophenyl)-1H-pyrazol-3-yl]-N-[(2R)-4-hydroxy-1-(pyridin-2-yl)butan-2-yl]benzamide], the “% inhibition of Wet-Dog Shake” value on TRPM8 (oral dose 1 mg/kg) is given as 82%. The response vs control in vivo at 1 mg/kg in assay [1] was found to be 169%. Compound `NC(=O)[C@H](Cc1ccccc1)NC(=O)c1ccccc1-c1cc(-c2ccccc2)[nH]n1` [Example 1-14] displayed a response vs control in vivo at 1 mg/kg in assay [1] of 138%. As to `O=C(N[C@@H](CO)Cc1ccccn1)c1ccccc1-c1cc(-c2ccc(F)cc2)[nH]n1` [Example 1-58], the “% inhibition of Wet-Dog Shake” value on TRPM8 (oral dose 3 mg/kg) turned out to be 86%. The same compound came in with a response vs control in vivo at 1 mg/kg in assay [1] of 159%. `O=C(N[C@@H](CO)Cc1ccccn1)c1cccc(F)c1-c1cc(-c2ccc(F)cc2)[nH]n1` [Example 1-84]: the “% inhibition of Wet-Dog Shake” value on TRPM8 (oral dose 1 mg/kg) came out at 59%. In assay [1], the response vs control in vivo at 1 mg/kg was 183%. On to `O=C(N[C@@H](CCO)Cc1ncccc1F)c1cccc(F)c1-c1cc(-c2ccc(F)cc2)[nH]n1` [Example 1-125], for which the “% inhibition of Wet-Dog Shake” value at TRPM8 (oral dose 1 mg/kg) is 56%. Also, the response vs control in vivo at 1 mg/kg in assay [1] turned out to be 223%. Compound `O=C(N[C@H](Cc1ccccn1)[C@H](O)CO)c1cccc(F)c1-c1cc(-c2ccc(F)cc2)[nH]n1` [Example 1-139] yielded a response vs control in vivo at 1 mg/kg in assay [1] of 163%. Consider `O=C(N[C@H](Cc1ccccn1)[C@H](O)CO)c1ccccc1-c1n[nH]c(-c2ccc(F)cc2)c1F` [Example 1-172], for which the “% inhibition of Wet-Dog Shake” value on TRPM8 (oral dose 1 mg/kg) is given as 100%. This compound gave a response vs control in vivo at 1 mg/kg in assay [1] of 194%. Regarding `CO[C@H](CO)[C@@H](Cc1ncccn1)NC(=O)c1cccc(F)c1-c1cc(-c2ccc(F)cc2)[nH]n1` [Example 1-227], at TRPM8 (oral dose 1 mg/kg), the “% inhibition of Wet-Dog Shake” value was found to be 66%. In assay [1], the response vs control in vivo at 1 mg/kg was 193%. Turning to `CO[C@H](CO)[C@@H](Cc1ncccn1)NC(=O)c1ccccc1-c1cc(-c2ccc(F)cc2)[nH]n1` [Example 1-238], the “% inhibition of Wet-Dog Shake” value at TRPM8 (oral dose 1 mg/kg) is recorded as 82%. The same compound registered a response vs control in vivo at 1 mg/kg in assay [1] of 136%. In the case of `CO[C@H](CO)[C@@H](Cn1cccn1)NC(=O)c1cccc(F)c1-c1cc(-c2ccc(F)cc2)[nH]n1` [Example 27-1, 3-Fluoro-2-[5-(4-fluorophenyl)-1H-pyrazol-3-yl]-N-[(2R,3S)-4-hydroxy-3-methoxy-1-(1H-pyrazol-1-yl)butan-2-yl]benzamide], the “% inhibition of Wet-Dog Shake” value at TRPM8 (oral dose 1 mg/kg) stood at 84%. Also, the response vs control in vivo at 1 mg/kg in assay [1] came to 158%. With `CO[C@H](CO)[C@@H](Cn1cccn1)NC(=O)c1ccccc1-c1cc(-c2ccc(F)cc2)[nH]n1` [Example 27-7], the “% inhibition of Wet-Dog Shake” value on TRPM8 (oral dose 1 mg/kg) stood at 88%. The response vs control in vivo at 1 mg/kg in assay [1] is 176%. Turning to `CO[C@H](CO)[C@@H](Cn1cccn1)NC(=O)c1cccc(F)c1-c1cc(-c2ccc(Cl)cc2)[nH]n1` [Example 27-14], on TRPM8 (oral dose 1 mg/kg), the “% inhibition of Wet-Dog Shake” value came out at 51%. In addition, the response vs control in vivo at 1 mg/kg in assay [1] turned out to be 195%.

As to `CO[C@H](CO)[C@@H](Cn1cccn1)NC(=O)c1cccc(F)c1-c1n[nH]c(-c2ccc(F)cc2)c1F` [Example 27-25], the “% inhibition of Wet-Dog Shake” value on TRPM8 (oral dose 1 mg/kg) is reported as 90%. This compound also yielded a response vs control in vivo at 1 mg/kg in assay [1] of 167%. The like results for `CO[C@H](CO)[C@@H](Cc1ccccn1)NC(=O)c1cccc(F)c1-c1cc(-c2ccc(Cl)cc2)[nH]n1` [Example 43-1, 2-[5-(4-Chlorophenyl)-1H-pyrazol-3-yl]-3-fluoro-N-[(2R,3 S)-4-hydroxy-3-methoxy-1-(pyridin-2-yl)butan-2-yl]benzamide] were, in that order, 90% and 156%. For the compound `CO[C@H](CO)[C@@H](Cc1ccccn1)NC(=O)c1cccc(F)c1-c1cc(-c2ccc(F)cc2)[nH]n1` [Example 43-3], the “% inhibition of Wet-Dog Shake” value on TRPM8 (oral dose 0.3 mg/kg) is 58%. This compound also returned a response vs control in vivo at 1 mg/kg in assay [1] of 158%. For `O=C(N[C@H](Cc1ccccn1)[C@H](F)CO)c1cccc(Cl)c1-c1cc(-c2ccc(F)cc2)[nH]n1` [Example 43-27], the “% inhibition of Wet-Dog Shake” value on TRPM8 (oral dose 3 mg/kg) is given as 80%. In assay [1], this compound registered a response vs control in vivo at 1 mg/kg of 185%. Take `O=C(N[C@H](Cn1nccn1)[C@H](F)CO)c1cccc(F)c1-c1cc(-c2ccc(F)cc2)[nH]n1` [Example 43-42]: the “% inhibition of Wet-Dog Shake” value at TRPM8 (oral dose 1 mg/kg) stood at 100%. For the same compound, in assay [1], the response vs control in vivo at 1 mg/kg came out at 158%.

Turning to `O=C(N[C@H](Cn1nccn1)[C@H](F)CO)c1cccc(F)c1-c1n[nH]c(-c2ccc(F)cc2)c1F` [Example 43-43], the “% inhibition of Wet-Dog Shake” value at TRPM8 (oral dose 0.3 mg/kg) came to 93%. Moreover, the response vs control in vivo at 1 mg/kg in assay [1] amounted to 172%. As for `O=C(N[C@H](Cn1cccn1)C(F)(F)CO)c1cccc(F)c1-c1cc(-c2ccc(F)cc2)[nH]n1` [Example 50-1, N-[(2R)-3,3-Difluoro-4-hydroxy-1-(1H-pyrazol-1-yl)butan-2-yl]-3-fluoro-2-[5-(4-fluorophenyl)-1H-pyrazol-3-yl]benzamide], the “% inhibition of Wet-Dog Shake” value at TRPM8 (oral dose 1 mg/kg) is 92%. Besides, the response vs control in vivo at 1 mg/kg in assay [1] was determined as 217%. The like results for `O=C(N[C@H](Cn1cccn1)[C@H](F)CO)c1cccc(F)c1-c1cc(-c2ccc(F)cc2)[nH]n1` [Example 50-6] were, in that order, 54% and 197%. As to `O=C(N[C@H](Cn1nccn1)C(F)(F)CO)c1cccc(F)c1-c1cc(-c2ccc(F)cc2)[nH]n1` [Example 50-12, N-[(2R)-3,3-Difluoro-4-hydroxy-1-(2H-1,2,3-triazol-2-yl)butan-2-yl]-3-fluoro-2-[5-(4-fluorophenyl)-1H-pyrazol-3-yl]benzamide], the “% inhibition of Wet-Dog Shake” value on TRPM8 (oral dose 0.3 mg/kg) worked out at 99%. The compound further came in with a response vs control in vivo at 1 mg/kg in assay [1] of 191%. On to `O=C(N[C@H](Cc1ccccn1)[C@@H](O)CO)c1cccc(F)c1-c1n[nH]c(-c2ccc(F)cc2)c1F` [Example 54-9], for which the “% inhibition of Wet-Dog Shake” value at TRPM8 (oral dose 3 mg/kg) came out at 40%. Turning to `CC(c1ccccn1)[C@@H](NC(=O)c1cccc(F)c1-c1cc(-c2ccc(F)cc2)[nH]n1)[C@H](O)CO` (stereo partly shown) [Example 54-14], the “% inhibition of Wet-Dog Shake” value at TRPM8 (oral dose 3 mg/kg) came out at 77%. For `CC(c1ccccn1)[C@@H](NC(=O)c1cccc(F)c1-c1cc(-c2ccc(Cl)cc2)[nH]n1)[C@H](O)CO` (stereo partly shown) [Example 54-16], the “% inhibition of Wet-Dog Shake” value at TRPM8 (oral dose 3 mg/kg) was 86%. In addition, in assay [1], the response vs control in vivo at 1 mg/kg is 132%. `CC(c1ccccn1)[C@@H](NC(=O)c1cccc(F)c1-c1n[nH]c(-c2ccc(F)cc2)c1F)[C@H](O)CO` (stereo partly shown) [Example 54-17]: the “% inhibition of Wet-Dog Shake” value on TRPM8 (oral dose 3 mg/kg) came to 42%. Consider `COC(c1ccccn1)[C@@H](NC(=O)c1cccc(F)c1-c1cc(-c2ccc(F)cc2)[nH]n1)[C@H](O)CO` (stereo partly shown) [Example 54-19], for which the “% inhibition of Wet-Dog Shake” value at TRPM8 (oral dose 3 mg/kg) worked out at 68%. On to `O=C(N[C@H](Cn1nccn1)C(F)(F)CO)c1cccc(F)c1-c1n[nH]c(-c2ccc(F)cc2)c1F` [Example 56-1, N-[(2R)-3,3-Difluoro-4-hydroxy-1-(2H-1,2,3-triazol-2-yl)butan-2-yl]-3-fluoro-2-[4-fluoro-5-(4-fluorophenyl)-1H-pyrazol-3-yl]benzamide], for which the “% inhibition of Wet-Dog Shake” value at TRPM8 (oral dose 0.3 mg/kg) was 91%. In addition, the response vs control in vivo at 1 mg/kg in assay [1] worked out at 150%. As for `COC[C@@H](O)[C@@H](Cn1nccn1)NC(=O)c1cccc(F)c1-c1cc(-c2ccc(F)cc2)[nH]n1` [Example 60-1], the “% inhibition of Wet-Dog Shake” value on TRPM8 (oral dose 1 mg/kg) is reported as 92%.
